Results published in patent publication US9549941B2, “Compositions and methods for treating hepatitis C virus” (priority 2011, dated 2017).

Tests used:
[1] = test system: mixture of 50% S282T and 50% WT in GT2a replicons; experiment: Long-term passaging study with deep sequencing; format: cell-based, hepatitis C virus; set-up: population mutant S282T: concentration or dose not given beside the values; conditions: over fifteen days
Description: (§1) In vitro studies have shown that S282T is the primary mutation selected by GS-7977 in HCV genotype 1a, 1b and 2a replicon cells. (Lam et al., J. Virology (2011) 85(23): 12334-12342; Lam et al., Antimicrob. Agents Chemother. (2012) 56(6): 3359-3368.) S282T mutations in NS5B were created by site-directed mutagenesis in 1a-H77, 1b con-1, and 2a JFH1 sub-genomic replicons. 1b con-1-based chimeric replicons containing 2b, 3a, 4a, 5a, or 6a NS5B were also engineered to harbor the S282T mutation. […] Relative percentages of mutant and WT were assessed by deep sequencing.
(See also Han et al., 63rd Annual Meeting of the American Association for the Study of Liver Diseases, Poster 1078, Nov. 11, 2012.)

[2] = test system: 1b con-1-based chimeric replicon containing 4a NS5B S282T; format: cell-based, hepatitis C virus; conditions: genotype 4a, S282T from corresponding wild-type
Procedure: as §1, with “(Lam” for “In vitro studies have shown that S282T is the primary mutation selected by GS-7977 in HCV genotype 1a, 1b and 2a replicon cells. (Lam”

[3] = test system: 1b con-1 sub-genomic replicon, NS5B S282T; format: cell-based, hepatitis C virus; conditions: genotype 1b, S282T from corresponding wild-type
Procedure: as §1, with “(Lam” for “In vitro studies have shown that S282T is the primary mutation selected by GS-7977 in HCV genotype 1a, 1b and 2a replicon cells. (Lam”

[4] = test system: 1b con-1-based chimeric replicon containing 3a NS5B S282T; format: cell-based, hepatitis C virus; conditions: genotype 3a, S282T from corresponding wild-type
Procedure: as §1, with “(Lam” for “In vitro studies have shown that S282T is the primary mutation selected by GS-7977 in HCV genotype 1a, 1b and 2a replicon cells. (Lam”

[5] = test system: 2a JFH1 sub-genomic replicon, NS5B S282T; format: cell-based, hepatitis C virus; conditions: genotype 2a, S282T from corresponding wild-type
Procedure: as §1, with “(Lam” for “In vitro studies have shown that S282T is the primary mutation selected by GS-7977 in HCV genotype 1a, 1b and 2a replicon cells. (Lam”

[6] = test system: 1b con-1-based chimeric replicon containing 5a NS5B S282T; format: cell-based, hepatitis C virus; conditions: genotype 5a, S282T from corresponding wild-type
Procedure: as §1, with “(Lam” for “In vitro studies have shown that S282T is the primary mutation selected by GS-7977 in HCV genotype 1a, 1b and 2a replicon cells. (Lam”

HCV NS5B S282T = experiment: GS-7977 resistance in Phase 2 clinical studies, population and deep sequencing of NS5B; format: in vivo, human; conditions: one GT2b patient, relapse 4 weeks after 12 weeks of monotherapy

`CC(C)OC(=O)[C@H](C)N[P@](=O)(OC[C@H]1O[C@@H](n2ccc(=O)[nH]c2=O)[C@](C)(F)[C@@H]1O)Oc1ccccc1` [GS-7977, (S)-isopropyl 2-(((S)-(((2R,3R,4R,5R)-5-(2,4-dioxo-3,4-dihydropyrimidin-1(2H)-yl)-4-fluoro-3-hydroxy-4-methyltetrahydrofuran-2-yl)methoxy)(phenoxy)phosphoryl)amino)propanoate] was tested, and the “population mutant S282T” value [1] was 92%, the “Fold Change” value [2] was 6.1 and the “Fold Change” value [3] was 8.8. The “Fold Change” value [4] was 3.5, the “Fold Change” value [5] was 2.4 and the “Fold Change” value [6] was 14.35. For the same compound, the “S282T at relapse by deep sequencing” value (HCV NS5B S282T) was 99%.
